Active and inactive are the calls of the source. No cut-off for these calls is given here.
Tests used:
[1] = Stability of the compound in acetonitrile up to 12 hrs by HPLC analysis; type: physicochemical
[2] = Stability of the compound in methanol:water (1:1) up to 12 hrs by HPLC analysis; type: physicochemical
SMMC-7721 [3] = assay: Induction of apoptosis in human SMMC7721 cells assessed as late apoptotic cells at 4 uM after 72 hrs by Alexa Fluor 488 Annexin/propidium iodide staining-based flow cytometric analysis (reference value: 0.62%); type: functional
A-375 [4] = assay: Antiproliferative activity against human A375 cells assessed as inhibition of cell proliferation at 16 uM after 72 hrs by CCK8 assay; type: functional; conditions: A-375, 72 h
SMMC-7721 [5] = assay: Induction of apoptosis in human SMMC7721 cells assessed as early apoptotic cells at 8 uM after 72 hrs by Alexa Fluor 488 Annexin/propidium iodide staining-based flow cytometric analysis (reference value: 0.70%); type: functional
SMMC-7721 [6] = assay: Induction of apoptosis in human SMMC7721 cells assessed as necrotic cells at 8 uM after 72 hrs by Alexa Fluor 488 Annexin/propidium iodide staining-based flow cytometric analysis (reference value: […]); type: functional
SMMC-7721 [7] = assay: Induction of apoptosis in human SMMC7721 cells assessed as viable cells at 4 uM after 72 hrs by Alexa Fluor 488 Annexin/propidium iodide staining-based flow cytometric analysis (reference value: 91.92%); type: functional; conditions: SMMC-7721, 72 h, read-out: Activity
A-375 [8] = assay: Antiproliferative activity against human A375 cells after 72 hrs by CCK8 assay; type: functional, cell-based; conditions: A-375, 72 h
SMMC-7721 [9] = assay: Cell cycle arrest in human SMMC7721 cells assessed as accumulation at G0/G1 phase at 8 uM after 72 hrs by RNase/propidium iodide staining-based flow cytometric analysis (reference value: 67.26%); type: functional
HCT-116 = assay: cells; conditions: Homo sapiens, HCT-116, 72 h
Description: Antiproliferative activity against human HCT116 cells after 72 hrs by CCK8 assay

A-375 [10] = assay: Antiproliferative activity against human A375 cells assessed as inhibition of cell proliferation at 32 uM after 72 hrs by CCK8 assay; type: functional; conditions: A-375, 72 h
SMMC-7721 [11] = assay: Cell cycle arrest in human SMMC7721 cells assessed as accumulation at G2/M phase at 4 uM after 72 hrs by RNase/propidium iodide staining-based flow cytometric analysis (reference value: 24.78%); type: functional
SMMC-7721 [12] = assay: Antiproliferative activity against human SMMC7721 cells assessed as inhibition of cell proliferation at 32 uM after 72 hrs by CCK8 assay; type: functional; conditions: SMMC-7721, 72 h
SMMC-7721 [13] = assay: Induction of apoptosis in human SMMC7721 cells assessed as late apoptotic cells at 8 uM after 72 hrs by Alexa Fluor 488 Annexin/propidium iodide staining-based flow cytometric analysis (reference value: 0.62%); type: functional
SMMC-7721 [14] = assay: Antiproliferative activity against human SMMC7721 cells assessed as inhibition of cell proliferation at 16 uM after 72 hrs by CCK8 assay; type: functional; conditions: SMMC-7721, 72 h
SMMC-7721 [15] = assay: Antiproliferative activity against human SMMC7721 cells after 72 hrs by CCK8 assay; type: functional, cell-based; conditions: SMMC-7721, 72 h
SMMC-7721 [16] = assay: Induction of apoptosis in human SMMC7721 cells assessed as necrotic cells at 4 uM after 72 hrs by Alexa Fluor 488 Annexin/propidium iodide staining-based flow cytometric analysis (reference value: […]); type: functional
SMMC-7721 [17] = assay: Induction of apoptosis in human SMMC7721 cells assessed as viable cells at 8 uM after 72 hrs by Alexa Fluor 488 Annexin/propidium iodide staining-based flow cytometric analysis (reference value: 91.92%); type: functional; conditions: SMMC-7721, 72 h, read-out: Activity
A549 = assay: cells; conditions: Homo sapiens, A549, 72 h
Description: Antiproliferative activity against human A549 cells after 72 hrs by CCK8 assay

SMMC-7721 [18] = assay: Cell cycle arrest in human SMMC7721 cells assessed as accumulation at G2/M phase at 8 uM after 72 hrs by RNase/propidium iodide staining-based flow cytometric analysis (reference value: 24.78%); type: functional
SMMC-7721 [19] = assay: Cell cycle arrest in human SMMC7721 cells assessed as accumulation at G0/G1 phase at 4 uM after 72 hrs by RNase/propidium iodide staining-based flow cytometric analysis (reference value: 67.26%); type: functional
HeLa = assay: Antiproliferative activity against human HeLa cells after 72 hrs by CCK8 assay; type: functional, cell-based
SMMC-7721 [20] = assay: Inhibition of colony formation in human SMMC7721 cells at 2 to 8 uM after 7 days by crystal violet staining-based assay; type: functional, cell-based
SMMC-7721 [21] = assay: Induction of apoptosis in human SMMC7721 cells assessed as early apoptotic cells at 4 uM after 72 hrs by Alexa Fluor 488 Annexin/propidium iodide staining-based flow cytometric analysis (reference value: 0.70%); type: functional
SMMC-7721 [22] = assay: Cell cycle arrest in human SMMC7721 cells assessed as accumulation at S phase at 8 uM after 72 hrs by RNase/propidium iodide staining-based flow cytometric analysis (reference value: 7.96%); type: functional
SMMC-7721 [23] = assay: Cell cycle arrest in human SMMC7721 cells assessed as accumulation at S phase at 4 uM after 72 hrs by RNase/propidium iodide staining-based flow cytometric analysis (reference value: 7.96%); type: functional
[24] = Drug degradation in methanol after 10 hrs at 50 degC by HPLC analysis; type: physicochemical; conditions: read-out: Drug degradation

With `CC(=O)NCCSC(=S)NCC/C=C/[S+](C)[O-]` (stereo unspecified) the Stability [1] was “Stable” and the Stability [2] was “Stable”.

For `C[S+]([O-])CCCCN=C=S` (stereo unspecified) [SULFORAPHANE], the Activity (SMMC-7721 [3]) was 2.82%, the inhibition at 16 µM (A-375 [4]) was 54% and the Activity (SMMC-7721 [5]) was 14.43%. The Activity (SMMC-7721 [6]) was 9.59%, the viability at 4 µM (SMMC-7721 [7]) was 88.4% and the IC50 (A-375 [8]) was 24.5 µM. For the same compound, the Activity (SMMC-7721 [9]) was 66.19%, the IC50 (HCT-116) was 36.7 µM and the inhibition at 32 µM (A-375 [10]) was 77.3%. For the same compound, the Activity (SMMC-7721 [11]) was 26.8%, the inhibition at 32 µM (SMMC-7721 [12]) was 88.3% and the Activity (SMMC-7721 [13]) was 9.09%. The inhibition at 16 µM (SMMC-7721 [14]) was 80.5%, the IC50 (SMMC-7721 [15]) was 7.87 µM and the Activity (SMMC-7721 [16]) was 4.14%. It also gave a viability at 8 µM (SMMC-7721 [17]) of 66.9%, an IC50 (A549) of 11.9 µM and an Activity (SMMC-7721 [18]) of 28.35%. The Activity (SMMC-7721 [19]) was 68.06%, the IC50 (HeLa) was 66.1 µM and the inhibition (SMMC-7721 [20]) was “Active”. For the same compound, the Activity (SMMC-7721 [21]) was 4.66%, the Activity (SMMC-7721 [22]) was 5.46% and the Activity (SMMC-7721 [23]) was 5.41%. For the same compound, the degraded at 10 h [24] was 60%.

For `CC(=O)NCCSC(=S)NCCCC[S+](C)[O-]` (stereo unspecified), the Stability [1] was “Stable” and the Stability [2] was “Stable”.

In the case of `COc1ccc(SC(=S)NCCCC[S+](C)[O-])cc1` (stereo unspecified), the Stability [1] is reported as “Unstable”, the Stability [2] is reported as “Unstable” and the degraded at 10 h [24] is reported as < 6%.

With `COc1ccc(SC(=S)NCC/C=C/[S+](C)[O-])cc1` (stereo unspecified) the Stability [1] was “Unstable”, the Stability [2] was “Unstable” and the degraded at 10 h [24] was 25%.

Compound `C[S+]([O-])/C=C/CCN=C=S` (stereo unspecified) has a degraded at 10 h [24] of 60%.

Source: ChEMBL document CHEMBL4261604, “Design, synthesis and biological evaluation of novel carbamodithioates as anti-proliferative agents against human cancer cells” (Eur J Med Chem, 2018)
